Test results: patent publication US12648946B2, “Combination of antibody-pyrrolobenzodiazepine derivative conjugate and PARP inhibitor” (DAIICHI SANKYO COMPANY, LIMITED, priority 2019, dated 2026)
Where two headings read alike, the source gives them in different places.

Assays:
[1] = test system: human lung cancer cell line Calu-6; experiment: Cell growth inhibition test (1); type: cell-based; settings: for IC50: Calu-6, 144 h
Procedure: (§1) The human lung cancer cell line Calu-6 obtained from ATCC (American Type Culture Collection) was used for evaluation. Cells were prepared with MEM containing 10% fetal bovine serum (GE Healthcare), MEM Non-Essential Amino Acids Solution (Thermo Fisher Scientific), and Sodium Pyruvate (Thermo Fisher Scientific) (Thermo Fisher Scientific; hereinafter, referred to as EMEM medium) to reach 1.25×10^4 cells/mL, and 80 μL portions of them were added into a 96-well cell culture microplate. After addition of the cells, the cells were cultured at 37° C. and 5% CO2 overnight.
(§2) On the next day, 10 μL portions of pyrrolobenzodiazepine derivative A, B, or C diluted with EMEM medium to 100 pM, 50 pM, 25 pM, 12.5 pM, 6.25 pM, 3.13 pM, 1.56 pM, or 0.78 pM were added to the microplate. To each well without any pyrrolobenzodiazepine derivative, 10 μL of EMEM medium was added. Further, 10 μL portions of olaparib prepared with EMEM medium to reach 2 μM were added to the microplate. To each well without olaparib, 10 μL of EMEM medium was added. Thereafter, the microplate was cultured at 37° C. and 5% CO2 for 6 days. After culturing, the microplate was taken out of the incubator, and left to stand at room temperature for 30 minutes. CellTiter-Glo Luminescent Cell Viability Assay (Promega Corporation) in an amount equivalent to that of the culture solution was added, and stirred using a plate mixer. The microplate was left to stand at room temperature for 10 minutes, and thereafter the amount of emission was measured by using a plate reader (PerkinElmer).
Cell survival rates in wells with derivative A, B, or C were calculated by using the following formula.
(§3) [formula] • a: Mean value of amounts of emission from wells with derivative A, B, or C • b: Mean value of amounts of emission from wells with medium • IC50 values were calculated by using the following formula.
(§4) [formula] • a: Concentration of derivative A, B, or C, a • b: Concentration of derivative A, B, or C, b • c: Cell survival rate when derivative A, B, or C of concentration a was added • d: Cell survival rate when derivative A, B, or C of concentration b was added • a and b satisfy a>b at points sandwiching a cell survival rate of 50%.
Cell survival rates in wells with derivative A, B, or C added together with 2 μM olaparib were calculated by using the following formula.
[formula] a: Mean value of amounts of emission from wells with derivative A, B, or C added together with 2 μM olaparib • b: Mean value of amounts of emission from wells with 2 μM olaparib • IC50 values were calculated by using the following formula.
as §4, with “and 2 μM olaparib were” for “was”

[2] = test system: human pharyngeal cancer cell line FaDu; experiment: Cell growth inhibition test (2); type: cell-based; settings: 144 h
Procedure: as §1, with “pharyngeal” for “lung”, “FaDu” for “Calu-6”, “6.25×10^3” for “1.25×10^4”
as §2, with “reach 1” for “reach 2”
Cell survival rates in wells with derivative A, B, or […] were calculated by using the following formula.
as §3, §4
Cell survival rates in wells with derivative A, B, or C added together with 1 μM olaparib were calculated by using the following formula.
[formula] • a: Mean value of amounts of emission from wells with derivative A, B, or C added together with 1 μM olaparib • b: Mean value of amounts of emission from wells with 1 μM olaparib • IC50 values were calculated by using the following formula.
as §4, with “and 1 μM olaparib were” for “was”

SMILES	IC50 ([1]; read-out: IC50, growth-suppressing effect, added singly, Calu-6, 6 days) [pM]	IC50 ([1]; read-out: IC50, growth-suppressing effect, added together with 2 μM olaparib, Calu-6, 6 days) [pM]	IC50 ([2]; read-out: IC50, growth-suppressing effect, added singly, FaDu, 6 days (test 2)) [pM]	IC50 ([2]; read-out: IC50, growth-suppressing effect, added together with 1 μM olaparib, FaDu, 6 days) [pM]	inhibition at 2 µM ([1]; 144 h, 2 μM olaparib alone, Calu-6, 6 days) [%]	inhibition at 1 µM ([2]; 1 μM olaparib alone, 6 days) [%]
COc1ccc(C2=CN3C(=O)c4cc(OC)c(OCCCCCOc5cc6c(cc5OC)C(=O)N5CC7(CC7)C[C@H]5C=N6)cc4NC[C@@H]3C2)cc1 [derivative A, (11a′S)-7′-Methoxy-8′-[(5-{[(11aS)-7-methoxy-2-(4-methoxyphenyl)-5-oxo-5,10,11,11a-tetrahydro-1H-pyrrolo[2,1-c][1,4]benzodiazepin-8-yl]oxy}pentyl)oxy]-1′,11a′-dihydro-5′H-spiro[cyclopropane-1,2′-pyrrolo[2,1-c][1,4]benzodiazepine]-5′-one]	6.8	4.3	8.6	4.4		
O=C(c1cc(Cc2n[nH]c(=O)c3ccccc23)ccc1F)N1CCN(C(=O)C2CC2)CC1 [olaparib, reference compound]					< 10	< 10
